From paper PMC4831468, “White collar 1‐induced photolyase expression contributes to UV‐tolerance of Ustilago maydis” (MicrobiologyOpen, 2015)

Columns and labels:
Format in all cases: binding
Cry2 [1] = target: T1, Cry2 (Mycosarcoma maydis, UniProt A0A0D1DUB1); experiment: UV-Vis absorption spectroscopy of copurified chromophore; blue-light photoreduction; settings: copurified from E. coli; photoreduction with 10 mM DTT, pH 7.5, 15 C
T1 construct: gene UMAG_05917; pET51b, 10xHis- and Strep-tagged, E. coli Arctic Express
T1 sequence (A0A0D1DUB1 1-623): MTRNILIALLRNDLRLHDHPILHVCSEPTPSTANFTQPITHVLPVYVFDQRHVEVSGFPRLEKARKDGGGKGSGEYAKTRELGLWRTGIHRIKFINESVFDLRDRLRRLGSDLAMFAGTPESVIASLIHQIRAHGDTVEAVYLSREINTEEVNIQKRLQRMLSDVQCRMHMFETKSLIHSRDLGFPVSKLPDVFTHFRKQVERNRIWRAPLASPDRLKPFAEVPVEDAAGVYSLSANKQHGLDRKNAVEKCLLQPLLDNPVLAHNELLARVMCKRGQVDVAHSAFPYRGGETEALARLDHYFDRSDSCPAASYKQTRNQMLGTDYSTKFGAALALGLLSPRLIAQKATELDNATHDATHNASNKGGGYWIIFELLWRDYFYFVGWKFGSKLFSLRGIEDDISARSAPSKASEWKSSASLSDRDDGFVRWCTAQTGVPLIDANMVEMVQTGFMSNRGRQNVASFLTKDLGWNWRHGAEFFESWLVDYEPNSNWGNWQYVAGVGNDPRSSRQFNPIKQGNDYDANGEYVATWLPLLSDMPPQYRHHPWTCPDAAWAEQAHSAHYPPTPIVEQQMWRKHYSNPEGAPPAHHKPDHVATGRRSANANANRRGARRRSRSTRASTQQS

Cry1 = target: T2, Cry1 (Mycosarcoma maydis, UniProt A0A0D1CDQ8); experiment: as above; settings: copurified from E. coli; photoreduction with 10 mM DTT, pH 7.5, 15 C
T2 construct: gene UMAG_01131; pET51b, 10xHis- and Strep-tagged, synthetic cDNA, E. coli BL21(DE3)
T2 sequence (A0A0D1CDQ8 1-881): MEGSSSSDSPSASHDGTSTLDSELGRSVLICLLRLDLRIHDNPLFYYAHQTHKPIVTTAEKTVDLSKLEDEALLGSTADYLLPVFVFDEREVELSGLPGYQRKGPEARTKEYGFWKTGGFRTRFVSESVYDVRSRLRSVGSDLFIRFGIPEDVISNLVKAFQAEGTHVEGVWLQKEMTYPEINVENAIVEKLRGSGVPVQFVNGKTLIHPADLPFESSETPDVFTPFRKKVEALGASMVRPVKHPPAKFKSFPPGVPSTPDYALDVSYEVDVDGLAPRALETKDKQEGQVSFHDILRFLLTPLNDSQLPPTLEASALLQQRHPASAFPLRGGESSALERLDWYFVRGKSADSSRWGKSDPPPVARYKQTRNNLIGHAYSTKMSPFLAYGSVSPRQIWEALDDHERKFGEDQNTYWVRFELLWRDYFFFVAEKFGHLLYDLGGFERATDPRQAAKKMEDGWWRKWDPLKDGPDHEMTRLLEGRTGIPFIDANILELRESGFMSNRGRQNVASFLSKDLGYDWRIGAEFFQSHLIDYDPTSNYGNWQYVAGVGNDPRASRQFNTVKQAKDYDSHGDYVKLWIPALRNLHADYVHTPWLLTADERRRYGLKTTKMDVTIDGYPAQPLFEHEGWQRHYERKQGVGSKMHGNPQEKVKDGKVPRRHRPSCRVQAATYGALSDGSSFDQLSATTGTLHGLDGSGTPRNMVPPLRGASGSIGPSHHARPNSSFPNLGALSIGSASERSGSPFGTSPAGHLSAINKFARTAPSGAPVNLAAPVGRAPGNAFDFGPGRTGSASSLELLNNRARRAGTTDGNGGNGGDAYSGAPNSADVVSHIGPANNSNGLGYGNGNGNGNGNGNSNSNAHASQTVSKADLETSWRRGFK

Phr1 [2] = target: T3, Phr1 (Mycosarcoma maydis, UniProt A0A0D1DNG6); experiment: as above; settings: copurified from E. coli; photoreduction with 10 mM DTT, pH 7.5, 15 C
T3 construct: gene UMAG_06079
T3 sequence (A0A0D1DNG6 1-655): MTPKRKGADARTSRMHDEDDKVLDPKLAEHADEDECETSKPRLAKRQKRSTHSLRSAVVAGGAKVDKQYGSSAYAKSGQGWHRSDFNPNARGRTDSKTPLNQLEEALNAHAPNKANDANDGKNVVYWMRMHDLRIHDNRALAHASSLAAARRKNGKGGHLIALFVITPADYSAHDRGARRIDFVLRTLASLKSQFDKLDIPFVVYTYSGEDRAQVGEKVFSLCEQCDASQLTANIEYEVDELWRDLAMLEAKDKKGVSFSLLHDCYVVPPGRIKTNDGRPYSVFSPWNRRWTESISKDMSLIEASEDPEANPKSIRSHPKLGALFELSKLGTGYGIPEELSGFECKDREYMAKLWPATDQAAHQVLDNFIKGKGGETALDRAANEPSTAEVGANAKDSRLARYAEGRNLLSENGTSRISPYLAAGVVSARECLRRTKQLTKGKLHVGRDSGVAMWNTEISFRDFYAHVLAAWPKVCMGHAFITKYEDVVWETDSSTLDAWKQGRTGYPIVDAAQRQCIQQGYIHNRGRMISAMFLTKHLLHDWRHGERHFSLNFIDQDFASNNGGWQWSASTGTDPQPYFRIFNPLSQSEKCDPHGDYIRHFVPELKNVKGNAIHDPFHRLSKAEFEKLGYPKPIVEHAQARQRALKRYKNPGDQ

Phr2 = target: T4, Phr2 (Mycosarcoma maydis, UniProt A0A0D1E060); experiment: as above; settings: copurified from E. coli; photoreduction with 10 mM DTT, pH 7.5, 15 C
T4 construct: gene UMAG_02144; pET51b, 10xHis- and Strep-tagged, E. coli Rosetta(DE3)
T4 sequence (A0A0D1E060 1-684): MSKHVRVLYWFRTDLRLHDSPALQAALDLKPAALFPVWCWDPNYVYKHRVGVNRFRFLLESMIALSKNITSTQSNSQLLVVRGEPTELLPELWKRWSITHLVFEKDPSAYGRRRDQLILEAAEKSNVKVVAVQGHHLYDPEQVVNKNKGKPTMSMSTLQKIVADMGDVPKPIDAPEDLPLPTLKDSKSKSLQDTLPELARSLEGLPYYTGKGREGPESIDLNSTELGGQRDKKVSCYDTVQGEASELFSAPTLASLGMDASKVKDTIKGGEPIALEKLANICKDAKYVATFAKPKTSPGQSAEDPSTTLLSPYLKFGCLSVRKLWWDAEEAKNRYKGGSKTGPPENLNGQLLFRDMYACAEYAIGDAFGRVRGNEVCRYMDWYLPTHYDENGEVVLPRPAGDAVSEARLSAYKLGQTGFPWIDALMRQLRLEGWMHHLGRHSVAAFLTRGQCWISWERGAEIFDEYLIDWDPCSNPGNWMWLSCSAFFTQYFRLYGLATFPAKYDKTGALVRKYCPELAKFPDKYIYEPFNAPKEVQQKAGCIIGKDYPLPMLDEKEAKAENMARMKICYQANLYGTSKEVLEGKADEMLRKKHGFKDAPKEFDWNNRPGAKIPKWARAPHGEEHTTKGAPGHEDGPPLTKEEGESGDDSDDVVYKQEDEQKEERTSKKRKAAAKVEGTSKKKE

Cry2 [3] = target: T1, Cry2; experiment: UV-Vis absorption spectroscopy of copurified chromophore (about […] nm peak); settings: copurified from E. coli; antenna chromophore, second site beside FAD; assigned from spectrum only
Phr1 [4] = target: T3, Phr1; experiment: as above; settings: copurified from E. coli; antenna chromophore, second site beside FAD; assigned from spectrum only

SMILES | UV-Vis absorption spectroscopy of copurified chromophore; blue-light photoreduct (Cry2 [1]) | UV-Vis absorption spectroscopy of copurified chromophore; blue-light photoreduct (Cry1) | UV-Vis absorption spectroscopy of copurified chromophore; blue-light photoreduct (Phr1 [2]) | UV-Vis absorption spectroscopy of copurified chromophore; blue-light photoreduct (Phr2) | UV-Vis absorption spectroscopy of copurified chromophore (about 380 nm peak) (Cry2 [3]) | UV-Vis absorption spectroscopy of copurified chromophore (about 380 nm peak) (Phr1 [4])
Cc1cc2nc3c(=O)[nH]c(=O)nc-3n(C[C@H](O)[C@H](O)[C@H](O)COP(=O)(O)OP(=O)(O)OC[C@H]3O[C@@H](n4cnc5c(N)ncnc54)[C@H](O)[C@@H]3O)c2cc1C [FAD] | these data proved that all CPF members of U. maydis bind FAD | these data proved that all CPF members of U. maydis bind FAD | these data proved that all CPF members of U. maydis bind FAD | these data proved that all CPF members of U. maydis bind FAD |  | 
Nc1nc2c(c(=O)[nH]1)[N+]1=CN(c3ccc(C(=O)N[C@@H](CCC(=O)O)C(=O)O)cc3)C[C@H]1CN2 [MTHF] |  |  |  |  | Methenyltetrahydrofolate (MTHF) is the second cofactor of Cry2 and Phr1 | Methenyltetrahydrofolate (MTHF) is the second cofactor of Cry2 and Phr1
